Entries after “also recorded” stand apart in the source; their conditions may differ. Read-outs that look alike come from different tables or passages of the source.
What was measured:
[1] = system: C57BL/6 mouse spleen cells; assay: Growth arrest of spleen cells cultured with mitogen Con A (thymidine incorporation); assay type: cell-based; settings: 48 hours
Protocol: Growth of spleen cells was evaluated in response to the mitogen Con A (2.5 μg/ml) after 48 hours by radioactive thymidine incorporation. Comparison is made at doses in mg/ml for inhibiting 25%, 50% and 90% of the growth of spleen cells; i.e. IC dose values.
Growth of spleen cells was evaluated in response to the mitogen Con A (2.5 μg/ml) after 48 hours by radioactive thymidine incorporation. Comparison is made at concentrations in mg/ml for inhibiting 25%, 50% and 90% of the growth of spleen cells; IC values.
Comparison is made at doses in mg/ml for inhibiting 25%, 50% and 90% of the growth of spleen cells; IC values.
For the study of Citrimix as the calcium/potassium alpha hydroxy citric acid chelate compared to the ammonia chelate of hydroxy citric acid (Nu-Citrimix), inhibition growth of primary spleen cells after in vitro exposure in microtiter cell culture for 48 hours in the presence of mitogen (Con A, 2 ug/ml), was the bioassay procedure used (Akesson C., Lindgren H., Pero R. W., Leanderson T., Ivars F., “An extract of Uncaria Tomentosa inhibiting cell division and NF-kB activity without inducing cell death,” International Immunopharm 3:1889-1900, 2003).

NF-kB = NF-kB inhibition in Jurkat T cells; assay type: cell-based, human; settings: FIG. 4
Protocol: FIG. 4 illustrates the evaluation of NF-kB in Jurkat T cells as previously described in detail after treatment with quinic acid (H+), quinic aid ammonium chelate neutralized to pH=7.5 or the equivalent amount of […] (NH4Cl).
Independent inhibition of NF-kB by either QA or NH4+ ions. Human Jurkat T cells were incubated together with either QA, QA-NH4+ or NH4Cl, and the degree of inhibition of NF-kB evaluated as described elsewhere. See, FIG. 4. Parra E, et al., 1997. Mol Cell Biol 17:1324-23; Akesson, C., et al., Int. Immunopharmacol., 5(1):219 (2005).

[2] = system: human HL-60 leukemic cells; assay: In vitro growth inhibition of cultured HL-60 cells by quinic acid salts/chelates (MTT); assay type: cell-based; settings: 72 hr, concentrations up to 3000 μg/ml
Excerpt: FIG. 1 illustrates in vitro growth inhibition expressed as IC50 values (i.e. the dose that inhibits 50% of growth) induced by various quinic acid salts, chelates or salts/chelates (molecular structure at saturation undetermined) in cultured HL-60 cells. QA-H+=free quinic acid (H+), QA-NH4.+=quinic acid ammonium chelate, QA-Na+=quinic acid sodium salt, QA-K+=quinic acid potaasium chelate, QA-Zn++=quinic acid zinc salt/chelate, QA-Li+=quinic acid lithium salt/chelate, Ca++=quinic acid calcium chelate, quinic acid histidine salt/chaelate=QA-histidine, quinic acid lysine salt/chelate=QA-lysine, and C-Med-100=non pH adjusted water extract.
For the study involving quinic acid salts and chelates (FIG. 1) quinic acid was purchased from Sigma (>99%). QA salts/chelates were synthesized by neutralization to pH=7.5 with the appropriate base, i.e., NH4OH, NaOH, Ca(OH)2, Zn(OH)2, LiOH, KOH, lysine or histidine. Serial dilutions of test compounds were added to human HL-60 leukemic cells (0.05×10^6 cells/ml) in 96-well, flat bottomed microtiter plates to give final concentrations in the cultures up to 3000 μg/ml. The plates were incubated for 72 hr at 37 C, pulsed with 20 μl MTT (5 mg/ml) for 3 hr, and the color estimated spectrophotometrically at 540 nm as described previously. (Schweitzer, C M et al. Spectrophotometric determination of clonogenic capacity of leukemic cells in semisolid microtiter culture systems. Experimental Hematology 21: 573-578, 1993). IC50 values were calculated and compared based on the live/dead ratio of cells.

[3] = system: Rat white blood cells (WBC); assay: DNA damage recovery in the rat after DXR treatment, white blood cell count; assay type: in vivo; settings: for Prevention of cell death after exposure to DNA damaging agent DXR: DXR treatment, WBC after 15 days
Excerpt: White blood cell (WBC) growth after 15 days estimated as 10^12WBC/liter blood. DXR=doxorubicin DNA damaging agent.
(§1) Rat white blood cells (WBC) or mouse spleen WBC were increased in vivo after quinic acid oral administration either by gavage or in drinking water from 7.2 to >8.2×10^6 cells/ml or 6.2 to 8.3×10^9 cells/ml, respectively. […] If extrapolated into a lifespan which is logically reasonable, then living to an average age of 90 years would be increased to 112 years by ingesting optimal amounts of quinic acid during one's lifetime.

mouse spleen WBC = assay: Mouse spleen WBC after quinic acid oral administration; assay type: in vivo; settings: oral (gavage or drinking water), increased from 6.2
Excerpt: as §1

DNA repair = DNA repair enhancement in vivo
Excerpt: The discovery began in trying to explain the biological activity of a hot water extract of Cat's Claw bark, Uncaria tomentosa, called C-Med-100. […] After this initial biological characterization, the applicant has set forth to identify the natural product behind DNA repair enhancement as a potential anti-aging therapy. A series of chemical studies have led scientists to first identify carboxy alkyl esters (CAEs) as the bioactives and then it was followed by quinic acid esters (QAEs) being identified as the only bioactive CAEs in cat's claw water extracts. […] bioactive both in vitro and in vivo. […] However, quinic acid is present in water extracts of Cat's Claw as […] in effect in a pro-metabolite form since the QAEs would be hydrolyzed to quinic acid in the gastrointestinal tract.

[4] = 2700 μg/ml; Jacobsen et al 1978; cited from earlier work
[5] = lower animals, oral, highest dose tested 300-600 mg/kg; Adamson et al 1970; cited from earlier work
[6] = human, oral, highest dose tested 90 mg/kg; Beer et al 1951, Adamson et al 1970; cited from earlier work
[7] = mouse, drink water; Akesson et al 2005; cited from earlier work
[8] = rat, oral; Sheng et al 2005; cited from earlier work
[9] = Safety, toxicity and efficacy (Table 2), human; assay type: in vivo; settings: oral, highest dose tested 70 mg/kg, University of Lund human volunteer n = 2
Excerpt: Quinmax™ is substantially pure quinic acid neutralized with aqueous ammonia to pH=7.5. As a result, in water ammonium ions are also generated which in themselves have potent biological functions. Ammonium ions, for example, stimulate protein synthesis in the GI tract, neutralize lysosomal vesicles thus preventing oxidative stress DNA damage, and inhibit NF-kB mediated inflammatory responses. These are examples of additional biological properties of Quinmax™, which is devoid of any added-on toxicity. […] Jacobsen, L B, Richardson, C L, Floss, H G. 1978. Shikimic acid and quinic acid are not mutagenic in the Ames assay. Lloydia 41(5): 450-452. Here the most important consideration is to compare the highest doses of quinic acid exposure to those shown to have efficacy in various animal models. It is quite apparent that quinic acid doses that far exceed the known efficacious doses of quinic acid have been used in the various animal model systems.
Here the most important consideration is to compare the highest doses of quinic acid exposure to those shown to have efficacy in various animal models. It is quite apparent that quinic acid doses that far exceed the known efficacious doses of quinic acid have been used in the various animal model systems. […] Moreover, Quinmax™ is quinic acid neutralized with aqueous ammonia to pH=7.5. […]

[10] = human, in vivo, po
Protocol: Additional oral administration of high dose QA was carried out after ingestion of 6 gm Quinmax™ in human volunteers at the University of Lund. The purpose of this study was to determine if significant metabolism of QA to hippuric acid occurred when QA was administered in the ammonia chelated form as Quinmax™, a 1:1.6 molar ratio of QA to ammonia ions.
A apparently healthy volunteer drank 6 gm Quinmax™ dissolved in 300 ml water over a 15 min period, and then about 40 ml of peripheral blood (4-red topped vacutainers) were allowed to clot at room temperature to prepare serum samples by centrifugation. The serum sampling points were 0.7 hr, 1.7 hr, 2.7 hr, 3.7 hr, 10.5 hr 12.5 hr, 22 hr, 28 hr and 44 hr. 30 ml serum samples were precipitated with 50% ethanol, taken to dryness under a stream of air, and redissolved in 1 ml of methanol for simultaneous HPLC analysis of quinic acid and hippuric acid.
First to determine when peak serum concentrations of QA occurred and how long they would remain detectable.

For `Cl.N` [NH4Cl, reference compound], the “IC25 growth of spleen cells (comparison in words)” value [1] was “comparable to the quinic acid ammonium chelate”, the “IC50 growth of spleen cells (comparison in words)” value [1] was “comparable to the quinic acid ammonium chelate” and the “IC90 growth of spleen cells (comparison in words)” value [1] was “comparable to the quinic acid ammonium chelate”. The “NF-kB inhibition (comparison in words)” value (NF-kB) was “as effective as the quinic acid NH4+ chelate”.
In the case of `O=C([O-])C1(O)CC(O)C(O)C(O)C1.O=C([O-])C1(O)CC(O)C(O)C(O)C1.[Ca+2]` (stereo not drawn) [QA-Ca++, quinic acid calcium chelate], the “IC50 growth inhibition of HL-60 cells (comparison in words)” value (“IC50 growth inhibition of HL-60 cells” below) ([2]; FIG. 1) is reported as “more effective than known salts such as QA-Na+”.
For `O=C(O)[C@]1(O)C[C@@H](O)[C@@H](O)[C@H](O)C1` [Quinic acid], the “Increase in the protection of the DNA from becoming damaged and killing the cells” value ([3]; calculated from rat WBC and mouse spleen WBC increases) was 13-25%, the “Prevention of cell death after exposure to DNA damaging agent DXR” value ([3]; rat) was “prevent cell death” and the “Rat white blood cells (WBC) after oral administration” value ([3]; rat, oral (gavage or drinking water), increased from 7.2) was > 8.2 ×10^6 cells/ml. For the same molecule, the “Mouse spleen WBC after oral administration” value (mouse spleen WBC) was 8.3 ×10^9 cells/ml, the “DNA repair enhancing activity (comparison in words)” value (DNA repair) was “as much DNA repair enhancing activity in vivo as did the QAEs” and the “Toxicity evaluated by mutagenicity in the Ames Assay” value [4] was “did not demonstrate any toxicity”. For the same molecule, the Toxicity [5] was “None”, the Toxicity [6] was “None” and the “Efficacy (efficacious dose)” value [7] was 250 mg/kg. The “Efficacy (efficacious dose)” value [8] was “≦200 mg/kg”.
In the case of `N.O=C(O)[C@]1(O)C[C@@H](O)[C@@H](O)[C@H](O)C1` [Quinmax™, quinic acid ammonium chelate], the “IC50 growth inhibition of HL-60 cells” value ([2]; FIG. 1, listed as QA-NH4+) is reported as “more effective than known salts such as QA-Na+”, the “IC50 growth inhibition of HL-60 cells” value ([2]; FIG. 1, listed as QA-NH4+ chelate) is reported as “much more biologically effective than any other salt or chelate; also recorded: as efficacious as the cat's claw water extract (C-Med-100)” and the “IC25 growth of spleen cells (comparison in words)” value [1] is reported as “dramatically lowering the IC25, IC50 and IC90 values compared to quinic acid (H+)”. The “IC50 growth of spleen cells (comparison in words)” value [1] was “dramatically lowering the IC25, IC50 and IC90 values compared to quinic acid (H+)”, the “IC90 growth of spleen cells (comparison in words)” value [1] was “dramatically lowering the IC25, IC50 and IC90 values compared to quinic acid (H+)” and the “NF-kB inhibition (comparison in words)” value (NF-kB) was “enhanced NF-kB inhibition over quinic acid (H+)”. The Toxicity [9] was “None”, the “Prevention of cell death after exposure to DNA damaging agent DXR” value ([3]; rat) was “prevent cell death” and the “DNA repair enhancing activity (comparison in words)” value (DNA repair) was “as efficacious as Cat's Claw water extracts such as C-Med-100”. The “Time during which hippuric acid could be measured in serum” value [10] was 3.7 to 12.5 h, the “Time of peak serum concentrations of QA” value [10] was “around 10.5 hr” and the “Efficacy (efficacious dose)” value [8] was “≦200 mg/kg”.

— patent US20090275656A1, “Medicinal Compositions of Salts, Chelates and/or Free Acids of Alpha Hydroxyl Organic Acids and Related Processes and Methods” (priority 2005, published 2009)
